From the NIST ThermoML archive (doi:10.1021/je060411g)
± gives the expanded uncertainty stated by the source.

Assay: molar heat capacity at constant pressure
Conditions: 101.33 kPa

CCC(C)CO (stereo not given) [2-methyl-1-butanol]
Conditions	molar heat capacity at constant pressure [J/K/mol]
84.68 K, Glass	66.37 ± 1.6
85.32 K, Glass	66.9 ± 1.7
86.62 K, Glass	68.05 ± 1.7
88.13 K, Glass	68.63 ± 1.7
88.55 K, Glass	69.49 ± 1.7
89.15 K, Glass	69.5 ± 1.7
90.45 K, Glass	69.12 ± 2.1
90.85 K, Glass	70.72 ± 2.1
92.36 K, Glass	71.63 ± 2.1
92.5 K, Glass	69.54 ± 2.1
92.77 K, Glass	72.07 ± 2.1
93.04 K, Glass	72.48 ± 2.1
94.27 K, Glass	72.89 ± 2.1
94.29 K, Glass	72.88 ± 2.1
94.69 K, Glass	73.39 ± 2.1
96.19 K, Glass	74.2 ± 2.1
96.22 K, Glass	74.42 ± 2.1
96.61 K, Glass	74.74 ± 2.2
98.11 K, Glass	75.66 ± 2.2
98.15 K, Glass	75.92 ± 2.2
98.53 K, Glass	76.35 ± 2.2
100.03 K, Glass	77.35 ± 2.2
100.07 K, Glass	77.68 ± 2.2
100.45 K, Glass	77.93 ± 2.2
101.96 K, Glass	78.33 ± 2.2
101.99 K, Glass	78.7 ± 2.2
102.38 K, Glass	78.97 ± 2.2
103.89 K, Glass	79.44 ± 2.2
103.92 K, Glass	79.95 ± 2.2
104.32 K, Glass	80.34 ± 2.3
105.82 K, Glass	80.96 ± 2.3
105.85 K, Glass	81.54 ± 2.3
106.25 K, Glass	82 ± 2.3
107.75 K, Glass	82.7 ± 2.3
107.79 K, Glass	83.22 ± 2.3
108.19 K, Glass	83.82 ± 2.3
109.68 K, Glass	84.31 ± 2.3
109.72 K, Glass	84.61 ± 2.3
110.13 K, Glass	85.55 ± 2.4
111.62 K, Glass	86.17 ± 2.4
111.66 K, Glass	86.13 ± 2.4
112.07 K, Glass	87.55 ± 2.4
113.54 K, Glass	88.63 ± 2.4
113.6 K, Glass	88.13 ± 2.4
114.02 K, Glass	89.94 ± 2.4
115.46 K, Glass	92.53 ± 2.5
115.54 K, Glass	91.47 ± 2.5
115.95 K, Glass	93.24 ± 2.5
117.36 K, Glass	100.69 ± 2.7
117.46 K, Glass	98.77 ± 2.6
117.87 K, Glass	98.66 ± 2.6
124.07 K, Liquid	145.49 ± 3.5
124.32 K, Liquid	145.64 ± 3.5
124.62 K, Liquid	145.89 ± 3.5
125.99 K, Liquid	145.72 ± 3.5
126.25 K, Liquid	145.78 ± 3.5
126.56 K, Liquid	145.84 ± 3.5
127.96 K, Liquid	145.9 ± 3.5
128.21 K, Liquid	145.94 ± 3.5
128.53 K, Liquid	145.95 ± 3.5
129.93 K, Liquid	146.02 ± 3.5
130.19 K, Liquid	146.06 ± 3.5
130.5 K, Liquid	146.03 ± 3.5
131.9 K, Liquid	146.08 ± 3.5
132.16 K, Liquid	146.14 ± 3.5
132.47 K, Liquid	146.14 ± 3.5
133.88 K, Liquid	146.23 ± 3.5
134.14 K, Liquid	146.25 ± 3.5
134.45 K, Liquid	146.21 ± 3.5
135.85 K, Liquid	146.27 ± 3.5
136.11 K, Liquid	146.35 ± 3.5
136.42 K, Liquid	146.35 ± 3.5
137.83 K, Liquid	146.45 ± 3.5
138.09 K, Liquid	146.51 ± 3.5
138.4 K, Liquid	146.51 ± 3.5
139.8 K, Liquid	146.64 ± 3.5
140.06 K, Liquid	146.68 ± 3.5
140.37 K, Liquid	146.62 ± 3.5
141.77 K, Liquid	146.82 ± 3.5
142.04 K, Liquid	146.87 ± 3.5
142.35 K, Liquid	146.83 ± 3.5
143.75 K, Liquid	146.95 ± 3.5
144.02 K, Liquid	146.99 ± 3.5
144.32 K, Liquid	146.98 ± 3.5
145.73 K, Liquid	147.13 ± 3.5
145.99 K, Liquid	147.22 ± 3.5
146.3 K, Liquid	147.23 ± 3.5
147.7 K, Liquid	147.38 ± 3.5
147.97 K, Liquid	147.38 ± 3.5
148.27 K, Liquid	147.42 ± 3.5
149.68 K, Liquid	147.55 ± 3.5
149.94 K, Liquid	147.65 ± 3.5
150.25 K, Liquid	147.61 ± 3.5
151.45 K, Liquid	147.59 ± 3.5
151.8 K, Liquid	147.34 ± 3.5
151.92 K, Liquid	147.82 ± 3.5
152.97 K, Liquid	147.67 ± 3.5
153.9 K, Liquid	148.01 ± 3.6
154.95 K, Liquid	148.09 ± 3.6
155.88 K, Liquid	148.33 ± 3.6
156.92 K, Liquid	148.38 ± 3.6
157.86 K, Liquid	148.55 ± 3.6
158.9 K, Liquid	148.61 ± 3.6
159.84 K, Liquid	148.75 ± 3.6
160.88 K, Liquid	148.86 ± 3.6
161.82 K, Liquid	149.02 ± 3.6
162.85 K, Liquid	149.11 ± 3.6
163.8 K, Liquid	149.23 ± 3.6
164.83 K, Liquid	149.31 ± 3.6
165.78 K, Liquid	149.53 ± 3.6
166.81 K, Liquid	149.67 ± 3.6
167.76 K, Liquid	149.85 ± 3.6
168.79 K, Liquid	149.95 ± 3.6
169.74 K, Liquid	150.13 ± 3.6
170.77 K, Liquid	150.21 ± 3.6
171.72 K, Liquid	150.38 ± 3.6
172.75 K, Liquid	150.45 ± 3.6
173.69 K, Liquid	150.67 ± 3.6
174.73 K, Liquid	150.8 ± 3.6
175.67 K, Liquid	150.96 ± 3.6
176.7 K, Liquid	151.12 ± 3.6
177.65 K, Liquid	151.36 ± 3.6
178.68 K, Liquid	151.42 ± 3.6
179.63 K, Liquid	151.66 ± 3.6
180.65 K, Liquid	151.78 ± 3.6
181.61 K, Liquid	151.91 ± 3.6
182.63 K, Liquid	152.05 ± 3.6
183.59 K, Liquid	152.19 ± 3.6
184.61 K, Liquid	152.36 ± 3.6
185.56 K, Liquid	152.59 ± 3.6
186.59 K, Liquid	152.73 ± 3.6
187.54 K, Liquid	152.92 ± 3.6
188.56 K, Liquid	153.02 ± 3.6
189.52 K, Liquid	153.24 ± 3.7
190.54 K, Liquid	153.38 ± 3.7
191.5 K, Liquid	153.55 ± 3.7
192.51 K, Liquid	153.71 ± 3.7
193.48 K, Liquid	153.87 ± 3.7
194.49 K, Liquid	154.12 ± 3.7
195.45 K, Liquid	154.28 ± 3.7
196.47 K, Liquid	154.44 ± 3.7
197.43 K, Liquid	154.67 ± 3.7
198.44 K, Liquid	154.78 ± 3.7
199.4 K, Liquid	155 ± 3.7
200.41 K, Liquid	155.18 ± 3.7
201.38 K, Liquid	155.44 ± 3.7
202.39 K, Liquid	155.73 ± 3.7
203.35 K, Liquid	155.9 ± 3.7
204.36 K, Liquid	156.25 ± 3.7
205.33 K, Liquid	156.37 ± 3.7
206.33 K, Liquid	156.66 ± 3.7
207.3 K, Liquid	156.95 ± 3.7
208.31 K, Liquid	157.5 ± 3.7
209.28 K, Liquid	157.69 ± 3.8
210.28 K, Liquid	158.2 ± 3.8
211.25 K, Liquid	158.49 ± 3.8
212.25 K, Liquid	158.88 ± 3.8
213.22 K, Liquid	159.25 ± 3.8
214.23 K, Liquid	159.75 ± 3.8
215.2 K, Liquid	160.09 ± 3.8
216.21 K, Liquid	160.71 ± 3.8
217.17 K, Liquid	160.99 ± 3.8
218.18 K, Liquid	161.49 ± 3.8
219.15 K, Liquid	161.82 ± 3.8
220.15 K, Liquid	162.39 ± 3.8
221.13 K, Liquid	162.7 ± 3.9
222.13 K, Liquid	163.26 ± 3.9
223.11 K, Liquid	163.61 ± 3.9
224.1 K, Liquid	164.01 ± 3.9
225.09 K, Liquid	164.48 ± 3.9
226.08 K, Liquid	164.73 ± 3.9
227.07 K, Liquid	165.18 ± 3.9
228.06 K, Liquid	165.39 ± 3.9
229.05 K, Liquid	165.83 ± 3.9
230.04 K, Liquid	166.09 ± 3.9
231.03 K, Liquid	166.52 ± 3.9
232.02 K, Liquid	166.86 ± 3.9
233.01 K, Liquid	167.29 ± 3.9
233.99 K, Liquid	167.66 ± 4
234.99 K, Liquid	168.13 ± 4
235.97 K, Liquid	168.53 ± 4
236.96 K, Liquid	169 ± 4
237.94 K, Liquid	169.41 ± 4
238.94 K, Liquid	169.88 ± 4
239.92 K, Liquid	170.34 ± 4
240.92 K, Liquid	170.8 ± 4
241.89 K, Liquid	171.24 ± 4
242.89 K, Liquid	171.69 ± 4
243.86 K, Liquid	172.18 ± 4
244.85 K, Liquid	172.64 ± 4
245.82 K, Liquid	173.22 ± 4.1
246.81 K, Liquid	173.63 ± 4.1
247.77 K, Liquid	174.23 ± 4.1
248.76 K, Liquid	174.73 ± 4.1
249.72 K, Liquid	175.28 ± 4.1
250.7 K, Liquid	175.88 ± 4.1
251.66 K, Liquid	176.43 ± 4.1
252.64 K, Liquid	177.14 ± 4.1
253.59 K, Liquid	177.16 ± 4.1
254.57 K, Liquid	177.34 ± 4.1
255.52 K, Liquid	177.97 ± 4.2
256.5 K, Liquid	178.62 ± 4.2
257.44 K, Liquid	179.24 ± 4.2
258.43 K, Liquid	179.85 ± 4.2
259.36 K, Liquid	180.45 ± 4.2
260.34 K, Liquid	181.06 ± 4.2
261.27 K, Liquid	181.7 ± 4.2
262.25 K, Liquid	182.25 ± 4.2
263.18 K, Liquid	182.89 ± 4.2
264.15 K, Liquid	183.6 ± 4.3
265.08 K, Liquid	184.25 ± 4.3
266.04 K, Liquid	184.88 ± 4.3
266.97 K, Liquid	185.71 ± 4.3
267.93 K, Liquid	186.53 ± 4.3
268.85 K, Liquid	187.04 ± 4.3
269.81 K, Liquid	187.76 ± 4.3
270.72 K, Liquid	188.25 ± 4.4
271.68 K, Liquid	189.05 ± 4.4
272.59 K, Liquid	189.75 ± 4.4
273.55 K, Liquid	190.39 ± 4.4
274.46 K, Liquid	191.2 ± 4.4
275.41 K, Liquid	191.82 ± 4.4
276.31 K, Liquid	192.56 ± 4.5
277.26 K, Liquid	193.3 ± 4.5
278.16 K, Liquid	193.91 ± 4.5
279.11 K, Liquid	194.8 ± 4.5
280 K, Liquid	195.48 ± 4.5
280.94 K, Liquid	196.42 ± 4.5
281.83 K, Liquid	197.02 ± 4.5
282.77 K, Liquid	197.86 ± 4.5
283.66 K, Liquid	198.58 ± 4.6
284.6 K, Liquid	199.41 ± 4.6
285.47 K, Liquid	200.28 ± 4.6
286.41 K, Liquid	201.04 ± 4.6
287.29 K, Liquid	201.86 ± 4.6
288.22 K, Liquid	202.76 ± 4.7
289.09 K, Liquid	203.46 ± 4.7
290.02 K, Liquid	204.47 ± 4.7
290.89 K, Liquid	205.13 ± 4.7
291.81 K, Liquid	206.07 ± 4.7
292.67 K, Liquid	206.55 ± 4.7
293.6 K, Liquid	207.65 ± 4.8
294.46 K, Liquid	208.23 ± 4.8
295.38 K, Liquid	209.45 ± 4.8
296.23 K, Liquid	210.26 ± 4.8
297.15 K, Liquid	211.14 ± 4.8
298 K, Liquid	211.98 ± 4.8
298.92 K, Liquid	212.94 ± 4.9
299.76 K, Liquid	213.73 ± 4.9
300.68 K, Liquid	214.69 ± 4.9
